Measurements published in US6737383B1, “Herbicidal oxadiazolidines” (priority 1999, dated 2004).

Tests used:
[1] = test system: soybean; assay: Test B pre/postemergence soybean; type: in vivo, Glycine max; settings: for Soybean plant response rating (0 to 10 scale): 0 is no effect
Method in brief: (§1)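 Response is a visual 0-to-10 score relative to untreated plants, where 0 means no effect and 10 means complete control, taken twelve to sixteen days after application. Treatments went onto soil at planting and onto foliage of 1- to 4-leaf plants, using a surfactant-containing non-phytotoxic solvent.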

[2] = test system: wheat; assay: Test B pre/postemergence wheat; type: in vivo, Triticum aestivum; settings: for Wheat plant response rating (0 to 10 scale): 0 is no effect
Method in brief: as §1

[3] = test system: purple nutsedge; assay: Test B pre/postemergence purple nutsedge; type: in vivo, Cyperus rotundus; settings: for Nutsedge plant response rating (0 to 10 scale): 0 is no effect
Method in brief: as §1

[4] = test system: duck salad; assay: Test B flood test duck salad; type: in vivo, Heteranthera limosa
Method in brief: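 Flood test on plants grown to the 2-leaf stage; treated plants kept in greenhouse twelve to sixteen days, then visually rated against controls on a 0 (no effect) to 10 (complete control) scale.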

[5] = Postemergence, Rate 125 g/ha, scale of 0 to 10 where 0 is no effect and 10 is complete control
[6] = Preemergence, Rate 62 g/ha, scale 0 to 10 (0 no effect, 10 complete control)
[7] = Preemergence, Rate 125 g/ha, 10 is complete control
[8] = Preemergence, Rate 250 g/ha, scale 0 to 10, 0 is no effect, 10 is complete control
[9] = Preemergence, Rate 500 g/ha, scale 0 to 10 (0 no effect, 10 complete control)
[10] = Rate 62 g/ha, Postemergence, scale of 0 to 10 where 0 is no effect and 10 is complete control
[11] = Rate 250 g/ha, Postemergence, scale 0 to 10, 0 is no effect, 10 is complete control
[12] = Rate 500 g/ha, Postemergence, scale 0 to 10
[13] = Rate 62 g/ha, headed Pre-emergence (flood test species), scale 0 to 10 (0 no effect, 10 complete control)
[14] = Rate 125 g/ha, Pre-emergence, flood test species, scale 0 to 10 where 0 is no effect and 10 is complete control
[15] = Rate 500 g/ha, headed Pre-emergence (flood test species), scale 0 to 10 (0 no effect, 10 complete control)
[16] = Postemergence (flood test species), Rate 125 g/ha, scale of 0 to 10 where 0 is no effect and 10 is complete control
[17] = Rate 62 g/ha, Postemergence section, flood test species, scale of 0 to 10 where 0 is no effect and 10 is complete control
[18] = Rate 250 g/ha, Postemergence (flood test), scale 0 to 10, 0 is no effect, 10 is complete control
[19] = Rate 500 g/ha, listed under Postemergence (flood test species), scale 0 to 10
[20] = Preemergence, Rate 62 g/ha, scale of 0 to 10 where 0 is no effect and 10 is complete control
[21] = Rate 125 g/ha, Postemergence, scale 0 to 10
[22] = Rate 250 g/ha, Pre-emergence, flood-test species, scale 0 to 10, 0 is no effect, 10 is complete control
[23] = Postemergence, Rate 1000 g/ha, scale 0 to 10 (0 no effect, 10 complete control)
[24] = Rate 1000 g/ha, Preemergence, scale 0 to 10 (0 no effect, 10 complete control)
[25] = Rate 2000 g/ha, Postemergence, scale 0 to 10
[26] = Rate 2000 g/ha, Preemergence, scale 0 to 10

Structure (SMILES): CC(C)N(C(=O)n1oc(=O)n(C(C)(C)C)c1=O)c1ccccc1 [Compound 129]
- Soybean plant response rating [1, 5]: 2
- Soybean plant response rating [1, 6]: 0
- Soybean plant response rating (0 to 10 scale) [1, 7]: 0
- Soybean plant response rating [1, 8]: 0
- Soybean plant response rating [1, 9]: 2
- Soybean plant response rating [1, 10]: 1
- Plant response rating, Soybean [1, 11]: 4
- Soybean plant response rating [1, 12]: 4
- Wheat plant response rating [2, 5]: 0
- Wheat plant response rating [2, 6]: 0
- Wheat plant response rating (0 to 10 scale) [2, 7]: 0
- Wheat plant response rating [2, 8]: 3
- Wheat plant response rating [2, 9]: 3
- Wheat plant response rating [2, 10]: 0
- Plant response rating, Wheat [2, 11]: 2
- Wheat plant response rating [2, 12]: 2
- Nutsedge plant response rating [3, 5]: 0
- Nutsedge plant response rating [3, 6]: 0
- Nutsedge plant response rating (0 to 10 scale) [3, 7]: 0
- Nutsedge plant response rating [3, 8]: 0
- Nutsedge plant response rating [3, 9]: 0
- Nutsedge plant response rating [3, 10]: 0
- Plant response rating, Nutsedge [3, 11]: 0
- Nutsedge plant response rating [3, 12]: 0
- Ducksalad plant response rating [4, 13]: 5
- Ducksalad plant response rating [4, 14]: 5
- Ducksalad plant response rating ([4]; Rate 250 g/ha, headed Pre-emergence (flood test species), scale 0 to 10 (0 no effect, 10 complete control)): 5
- Plant response rating, Ducksalad [4, 15]: 5

Structure (SMILES): COc1ccccc1Cn1c(=O)on(C(=O)N(c2ccc(F)cc2)C(C)C)c1=O [Compound 143]
- Soybean plant response rating [1, 5]: 3
- Soybean plant response rating [1, 6]: 0
- Soybean plant response rating (0 to 10 scale) [1, 7]: 0
- Soybean plant response rating [1, 8]: 0
- Soybean plant response rating [1, 9]: 1
- Soybean plant response rating [1, 10]: 3
- Plant response rating, Soybean [1, 11]: 4
- Soybean plant response rating [1, 12]: 5
- Wheat plant response rating [2, 5]: 0
- Wheat plant response rating [2, 6]: 0
- Wheat plant response rating (0 to 10 scale) [2, 7]: 0
- Wheat plant response rating [2, 8]: 0
- Wheat plant response rating [2, 9]: 0
- Wheat plant response rating [2, 10]: 0
- Plant response rating, Wheat [2, 11]: 0
- Wheat plant response rating [2, 12]: 0
- Nutsedge plant response rating [3, 5]: 0
- Nutsedge plant response rating [3, 6]: 0
- Nutsedge plant response rating (0 to 10 scale) [3, 7]: 0
- Nutsedge plant response rating [3, 8]: 0
- Nutsedge plant response rating [3, 9]: 0
- Nutsedge plant response rating [3, 10]: 0
- Plant response rating, Nutsedge [3, 11]: 0
- Nutsedge plant response rating [3, 12]: 0
- Ducksalad plant response rating [4, 16]: 0
- Ducksalad plant response rating [4, 17]: 0
- Plant response rating, Ducksalad [4, 18]: 0
- Ducksalad plant response rating [4, 19]: 5

Structure (SMILES): CN(C(=O)n1oc(=O)n(Cc2ccccc2)c1=O)c1ccccc1 [Compound 153]
- Soybean plant response rating [1, 5]: 0
- Soybean plant response rating [1, 6]: 0
- Soybean plant response rating (0 to 10 scale) [1, 7]: 0
- Soybean plant response rating [1, 8]: 0
- Soybean plant response rating [1, 9]: 0
- Soybean plant response rating [1, 10]: 0
- Plant response rating, Soybean [1, 11]: 0
- Soybean plant response rating [1, 12]: 0
- Wheat plant response rating [2, 6]: 0
- Wheat plant response rating (0 to 10 scale) [2, 7]: 0
- Wheat plant response rating [2, 8]: 0
- Wheat plant response rating [2, 9]: 0
- Wheat plant response rating [2, 10]: 0
- Plant response rating, Wheat [2, 11]: 0
- Wheat plant response rating [2, 12]: 0
- Nutsedge plant response rating [3, 5]: 0
- Nutsedge plant response rating [3, 6]: 0
- Nutsedge plant response rating (0 to 10 scale) [3, 7]: 0
- Nutsedge plant response rating [3, 8]: 0
- Nutsedge plant response rating [3, 9]: 0
- Nutsedge plant response rating [3, 10]: 0
- Plant response rating, Nutsedge [3, 11]: 0
- Nutsedge plant response rating [3, 12]: 0
- Ducksalad plant response rating [4, 16]: 0
- Ducksalad plant response rating [4, 17]: 0
- Plant response rating, Ducksalad [4, 18]: 0
- Ducksalad plant response rating [4, 19]: 0

Structure (SMILES): CC(C)N(C(=O)n1oc(=O)[nH]c1=O)c1ccc(F)cc1 [Compound 164]
- Soybean plant response rating [1, 5]: 1
- Soybean plant response rating [1, 20]: 0
- Soybean plant response rating (0 to 10 scale) [1, 7]: 0
- Soybean plant response rating [1, 8]: 0
- Soybean plant response rating [1, 9]: 0
- Soybean plant response rating [1, 10]: 0
- Plant response rating, Soybean [1, 11]: 2
- Soybean plant response rating [1, 12]: 2
- Wheat plant response rating [2, 20]: 0
- Wheat plant response rating (0 to 10 scale) [2, 7]: 0
- Wheat plant response rating [2, 8]: 0
- Wheat plant response rating [2, 9]: 0
- Plant response rating, Wheat [2, 11]: 0
- Wheat plant response rating [2, 12]: 0
- Nutsedge plant response rating [3, 5]: 0
- Nutsedge plant response rating [3, 20]: 0
- Nutsedge plant response rating (0 to 10 scale) [3, 7]: 0
- Nutsedge plant response rating [3, 8]: 0
- Nutsedge plant response rating [3, 9]: 0
- Nutsedge plant response rating [3, 10]: 0
- Plant response rating, Nutsedge [3, 11]: 0
- Nutsedge plant response rating [3, 12]: 0
- Ducksalad plant response rating [4, 16]: 0
- Ducksalad plant response rating [4, 17]: 0
- Plant response rating, Ducksalad [4, 18]: 0
- Ducksalad plant response rating [4, 19]: 0

Structure (SMILES): COc1nc(OC)nc(N(C(=O)n2oc(=O)n(-c3c(C)cccc3C)c2=O)C(C)C)n1 [Compound 180]
- Soybean plant response rating [1, 20]: 0
- Soybean plant response rating (0 to 10 scale) [1, 7]: 0
- Soybean plant response rating [1, 8]: 0
- Soybean plant response rating [1, 9]: 0
- Soybean plant response rating [1, 10]: 0
- Soybean plant response rating [1, 21]: 0
- Plant response rating (0 to 10; 0 is no effect, 10 is complete control), Soybean ([1]; Rate 250 g/ha, Postemergence): 0
- Soybean plant response rating [1, 12]: 0
- Wheat plant response rating [2, 20]: 0
- Wheat plant response rating [2, 8]: 0
- Wheat plant response rating [2, 9]: 0
- Wheat plant response rating [2, 21]: 0
- Plant response rating (0 to 10; 0 is no effect, 10 is complete control), Wheat ([2]; Rate 250 g/ha, Postemergence): 0
- Wheat plant response rating [2, 12]: 0
- Nutsedge plant response rating [3, 20]: 0
- Nutsedge plant response rating (0 to 10 scale) [3, 7]: 0
- Nutsedge plant response rating [3, 8]: 0
- Nutsedge plant response rating [3, 9]: 0
- Nutsedge plant response rating [3, 10]: 0
- Nutsedge plant response rating [3, 21]: 0
- Plant response rating (0 to 10; 0 is no effect, 10 is complete control), Nutsedge ([3]; Rate 250 g/ha, Postemergence): 0
- Nutsedge plant response rating [3, 12]: 0
- Ducksalad plant response rating [4, 13]: 0
- Ducksalad plant response rating [4, 14]: 0
- Ducksalad plant response rating [4, 22]: 0
- Plant response rating, Ducksalad [4, 15]: 0

Structure (SMILES): CCN(C(=O)n1oc(=O)n(N(C)c2ccccc2)c1=O)C1CCCCC1 [Compound 183]
- Soybean plant response rating [1, 23]: 2
- Soybean plant response rating [1, 20]: 0
- Soybean plant response rating (0 to 10 scale) [1, 7]: 0
- Soybean plant response rating [1, 8]: 0
- Soybean plant response rating [1, 9]: 0
- Soybean plant response rating [1, 10]: 0
- Soybean plant response rating [1, 21]: 1
- Plant response rating (0 to 10; 0 is no effect, 10 is complete control), Soybean ([1]; Rate 250 g/ha, Postemergence): 2
- Soybean plant response rating [1, 12]: 2
- Plant response rating, Soybean [1, 24]: 0
- Soybean plant response rating [1, 25]: 3
- Soybean plant response rating [1, 26]: 0
- Wheat plant response rating [2, 23]: 0
- Wheat plant response rating [2, 20]: 0
- Wheat plant response rating [2, 8]: 0
- Wheat plant response rating [2, 9]: 0
- Wheat plant response rating [2, 21]: 0
- Plant response rating (0 to 10; 0 is no effect, 10 is complete control), Wheat ([2]; Rate 250 g/ha, Postemergence): 0
- Wheat plant response rating [2, 12]: 0
- Plant response rating, Wheat [2, 24]: 0
- Wheat plant response rating [2, 25]: 0
- Wheat plant response rating [2, 26]: 0
- Nutsedge plant response rating [3, 23]: 0
- Nutsedge plant response rating [3, 20]: 0
- Nutsedge plant response rating (0 to 10 scale) [3, 7]: 0
- Nutsedge plant response rating [3, 8]: 0
- Nutsedge plant response rating [3, 9]: 0
- Nutsedge plant response rating [3, 10]: 0
- Nutsedge plant response rating [3, 21]: 0
- Plant response rating (0 to 10; 0 is no effect, 10 is complete control), Nutsedge ([3]; Rate 250 g/ha, Postemergence): 0
- Nutsedge plant response rating [3, 12]: 0
- Plant response rating, Nutsedge [3, 24]: 0
- Nutsedge plant response rating [3, 25]: 0
- Nutsedge plant response rating [3, 26]: 0
- Ducksalad plant response rating [4, 13]: 0
- Ducksalad plant response rating [4, 14]: 0
- Ducksalad plant response rating [4, 22]: 0
- Plant response rating, Ducksalad [4, 15]: 0
- Ducksalad plant response rating ([4]; Rate 1000 g/ha, Pre-emergence (as headed), scale 0 to 10): 0
- Ducksalad plant response rating ([4]; Rate 2000 g/ha, Pre-emergence (as headed), scale 0 to 10): 0
